Measured values: paper PMC7158045 (BMC Plant Biology, 2020)
Structures can show the parent of a compound that is named as a salt.

Columns and labels:
Assay in all cases: biochemical
[1] = biological target: T1, ZmDRIK1-K217-P492 (Zea mays, UniProt C0P4K9); conditions: read-out: dTm B, sheet ZmDRIK1-K217-P492;; DSF, Boltzmann fit, 0.1% DMSO
T1 construct: kinase domain, K217-P492
T1 sequence (C0P4K9 1-514): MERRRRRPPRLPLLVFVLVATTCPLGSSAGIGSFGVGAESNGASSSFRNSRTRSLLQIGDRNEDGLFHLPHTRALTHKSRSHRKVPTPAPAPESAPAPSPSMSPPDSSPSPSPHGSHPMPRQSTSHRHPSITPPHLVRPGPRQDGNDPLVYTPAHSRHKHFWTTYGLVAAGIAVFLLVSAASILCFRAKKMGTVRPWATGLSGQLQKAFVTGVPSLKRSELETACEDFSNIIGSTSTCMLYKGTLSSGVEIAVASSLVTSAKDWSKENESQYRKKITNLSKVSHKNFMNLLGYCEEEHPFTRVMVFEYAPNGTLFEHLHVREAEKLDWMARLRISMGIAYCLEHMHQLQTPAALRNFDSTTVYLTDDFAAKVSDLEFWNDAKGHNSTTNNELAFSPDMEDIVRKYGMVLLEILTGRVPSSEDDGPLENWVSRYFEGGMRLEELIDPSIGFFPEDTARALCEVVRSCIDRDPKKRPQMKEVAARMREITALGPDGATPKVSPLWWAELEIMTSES

[2] = biological target: T2, ZmDRIK1 (DROUGHT RESPONSIVE INACTIVE KINASE 1), kinase domain (Zea mays, UniProt C0P4K9); conditions: read-out: dTm B, sheet ZmDRIK1-R187-S514;; DSF, Boltzmann fit, 0.1% DMSO
T2 construct: gene ZEAMMB73_Zm00001d028770; ZmDRIK1-KD R187-S514 (kinase domain)
T2 sequence (C0P4K9 187-514): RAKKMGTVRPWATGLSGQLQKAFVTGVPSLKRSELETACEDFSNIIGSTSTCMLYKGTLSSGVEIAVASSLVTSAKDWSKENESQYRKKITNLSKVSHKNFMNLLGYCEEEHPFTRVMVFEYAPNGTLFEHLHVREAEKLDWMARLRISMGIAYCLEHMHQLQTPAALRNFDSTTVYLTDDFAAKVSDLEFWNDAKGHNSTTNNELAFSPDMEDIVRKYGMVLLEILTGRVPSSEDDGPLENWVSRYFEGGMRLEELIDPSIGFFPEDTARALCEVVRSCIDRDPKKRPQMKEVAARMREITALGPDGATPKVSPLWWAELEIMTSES

[3] = biological target: T3, ZmDRIK1-K217-S514 (Zea mays, UniProt C0P4K9); conditions: read-out: dTm B, sheet ZmDRIK1-K217-S514;; DSF, Boltzmann fit, 0.1% DMSO
T3 construct: kinase domain, K217-S514
T3 sequence (C0P4K9 1-514): T1 sequence (C0P4K9 1-514)

[4] = biological target: T4, ZmDRIK1-R187-P492 (Zea mays, UniProt C0P4K9); conditions: read-out: dTm B, DSF, Boltzmann fit, 0.1% DMSO
T4 construct: kinase domain, R187-P492
T4 sequence (C0P4K9 1-514): T1 sequence (C0P4K9 1-514)

SMILES	ΔTm at 10 µM [1] [°C]	ΔTm at 10 µM [2] [°C]	ΔTm at 10 µM [3] [°C]	ΔTm at 10 µM [4] [°C]
NC(=O)c1ncn([C@@H]2O[C@H](CO)[C@@H](O)[C@H]2O)c1N [Acadesine]	-0.691	-0.564	-0.387	-0.0339
CCCNC(=O)Nc1ccc(Oc2ncnc3cc(OC)c(OC)cc23)cc1Cl [KRN 633]	-0.52	-1.02	-0.102	-0.332
C=CC(=O)N1CCC[C@@H](n2nc(-c3ccc(Oc4ccccc4)cc3)c3c(N)ncnc32)C1 [Ibrutinib (PCI-32765)]	-1.14	-0.597	-0.359	-0.476
Cn1cc(-c2cnn3c(N)c(Br)c([C@@H]4CCCNC4)nc23)cn1 [MK-8776 (SCH 900776)]	-0.951	-0.736	-0.293	-0.226
O=C1NCCc2[nH]c(-c3ccncc3)cc21 [PHA-767491]	-0.984	-0.701	-0.125	-0.213
CN1CCC(CNc2ccc3ncc(-c4cccc(OC(F)(F)F)c4)n3n2)CC1 [SGI-1776 free base]	-0.576	-1.1	-0.336	-0.27
COc1ccccc1-c1cc(Nc2cccc(CS(N)(=O)=O)c2)ncn1 [LDC000067]	0.0733	-0.172	0.865	0.533
C=CC(=O)Nc1cccc(Nc2nc(Nc3ccc(NC4CN(CCF)C4)cc3OC)ncc2C(F)(F)F)c1 [CNX-2006]	-1.15	-0.903	-0.646	-0.528
C=CC(=O)Nc1cccc(Sc2nc(Nc3ccc(N4CCN(C)CC4)cc3)ncc2Cl)c1 [WZ8040]	-0.667	-0.927	-0.291	-0.275
O=C(c1ccc(Nc2nccc(-c3cc4ccccc4s3)n2)cc1)N1CCC(N2CCCC2)CC1 [IKK-16 (IKK Inhibitor VII)]	-0.786	-0.0967	0.121	0.0892
C#Cc1cccc(Nc2ncnc3cc4c(cc23)OCCOCCOCCO4)c1 [Icotinib]	-1.1	-0.618	-0.34	-0.388
O=C1c2ccc(Nc3ccc(F)cc3F)cc2CCc2ccc(OC[C@H](O)CO)cc21 [Skepinone-L]	-0.992	-0.803	-0.642	-0.481
CN1CC[C@H](c2c(O)cc(O)c3c(=O)cc(-c4ccccc4Cl)oc23)[C@H](O)C1 [Flavopiridol HCl]	-1.16	-0.837	-0.391	-0.272
Cc1cc(Nc2cc(CN3CCOCC3)c3nc(C)c(Cc4ccc(Cl)cc4F)n3n2)n[nH]1 [LY2784544]	-0.85	-0.894	-0.0976	-0.165
O=C1NC(=O)/C(=C/c2ccc(-c3ccc(F)cc3O)o2)S1 [AS-252424]	1.37	0.389	1.39	0.884
Cc1cc2c(F)c(Oc3ncnn4cc(OC[C@@H](C)OC(=O)[C@H](C)N)c(C)c34)ccc2[nH]1 [Brivanib Alaninate (BMS-582664)]	-1	-1.08	-0.426	-0.504
CCc1cccc(CC)c1NC(=O)N1Cc2[nH]nc(NC(=O)c3ccc(N4CCN(C)CC4)cc3)c2C1 [PHA-680632]	-0.924	-0.776	-0.247	-0.18
NC1(C(=O)N[C@@H](CCO)c2ccc(Cl)cc2)CCN(c2ncnc3[nH]ccc23)CC1 [AZD5363]	-1.06	-0.693	-0.652	-0.504
Cc1c(NC(=O)OC[C@@H]2COCCN2)cn2ncnc(Nc3ccc4c(cnn4Cc4cccc(F)c4)c3)c12 [AC480 (BMS-599626)]	-0.766	-0.997	-0.265	-0.278

SMILES	ΔTm at 10 µM [1] [°C]	ΔTm at 10 µM [2] [°C]	ΔTm at 10 µM [3] [°C]	ΔTm at 10 µM [4] [°C]
C[C@H]1[C@H](C)CC[C@]2(C(=O)O)CC[C@]3(C)C(=CC[C@@H]4[C@@]5(C)C[C@@H](O)[C@H](O)[C@@](C)(CO)[C@@H]5CC[C@]43C)[C@H]12 [Asiatic Acid]	-1.33	-0.753	-0.368	-0.41
Cc1cnc(Nc2ccc(OCCN3CCCC3)cc2)nc1Nc1cccc(S(=O)(=O)NC(C)(C)C)c1 [TG101348 (SAR302503)]	-0.974	-0.804	-0.238	-0.567
NCC(=O)Nc1ccc(-n2nc(C(F)(F)F)cc2-c2ccc3c(ccc4ccccc43)c2)cc1 [OSU-03012 (AR-12)]	-8.69	-0.382	0.388	-1.36
COc1cc2nccc(Oc3ccc(NC(=O)Nc4cc(C)on4)c(Cl)c3)c2cc1OC [Tivozanib (AV-951)]	-3.26	-0.0903	-0.402	-3.15
N#C/C(=C(/N)Sc1ccc(N)cc1)c1ccccc1C(F)(F)F [SL-327]	-0.701	-1.09	-0.356	-0.157
CCCS(=O)(=O)Nc1ccc(F)c(C(=O)c2c[nH]c3ncc(Cl)cc23)c1F [PLX-4720]	-0.653	-1.27	-0.478	-0.12
COc1cc(Nc2ncc3c(n2)-c2ccc(Cl)cc2C(c2c(F)cccc2OC)=NC3)ccc1C(=O)O [Alisertib (MLN8237)]	-1.1	-1.37	-0.528	-0.494
Fc1cc(-c2cccc3ncc(-c4cnn(C5CCNCC5)c4)nc23)cc(F)c1CN1CCOCC1 [NVP-BSK805 2HCl]	-0.999	-0.913	-0.602	-0.0846
Nc1nc(N)c2nc(-c3cccc(O)c3)c(-c3cccc(O)c3)nc2n1 [TG100-115]	-0.6	-0.852	-0.395	-0.347
NC(=O)Nc1cc(-c2cccc(F)c2)sc1C(=O)N[C@H]1CCCNC1 [AZD7762]	-0.323	-0.804	-0.261	-0.167
COc1cc(Nc2ncc(F)c(Nc3ccc4c(n3)N(COP(=O)(O)O)C(=O)C(C)(C)O4)n2)cc(OC)c1OC [Fostamatinib (R788)]	-0.792	-0.579	-0.314	-0.222
O=c1ncn2nc(Sc3ccc(F)cc3F)ccc2c1-c1c(Cl)cccc1Cl [VX-745]	-1.03	-0.881	-0.414	-0.394
O=C(/C=C/c1ccc(O)c(O)c1)c1ccc(O)cc1O [Butein]	1.78	0.686	0.982	0.882
Cc1csc(-c2nnc(Nc3ccc(Oc4ncccc4-c4ccnc(N)n4)cc3)c3ccccc23)c1 [AMG-900]	-3.86	-6.12	-2.33	-0.572
Cc1ccc(C(=O)Nc2cccc(C(F)(F)F)c2)cc1Nc1nc(-c2cccnc2)nc2c1cnn2C [NVP-BHG712]	-0.914	-2.05	0.0902	-0.0503
NC1(c2ccc(-c3nc4ccn5c(=O)[nH]nc5c4cc3-c3ccccc3)cc2)CCC1 [MK-2206 2HCl]	-0.178	-1.02	-0.181	-0.104
O=C1NC(=O)/C(=C/c2cccc(C(F)(F)F)c2)S1 [SMI-4a]	-1.12	-0.708	-0.218	0.139
Cc1c(F)cc(C(=O)NC2CC2)cc1-c1ccc(C(=O)NCC(C)(C)C)cn1 [Losmapimod (GW856553X)]	-0.577	-0.594	-0.464	-0.242
